Laboratory results from paper PMC6203852 (British Journal of Cancer, 2018).

Legend:
[1] = Plasma pharmacokinetics of ARQ 501 (β-lapachone) after intravenous ARQ 761 (UHPLC-MS/MS, two-compartment model); format: in vivo, human; details: plasma ARQ 501 after ARQ 761 infusions
Description: During the first and fourth infusions of study drug, serial blood samples for determination of plasma ARQ 501 levels were drawn at the following time points: pre-infusion, infusion start, 15 min, 30 min, 60 min, 120 min (for the 2-h infusion cohort), 15 min post-infusion, 1 h post-infusion, 3 h post-infusion, 5 h post-infusion, 24 h post-infusion, 48 h post-infusion, and 168 h post-infusion. ARQ 501 plasma concentrations were determined using an ultra-high-performance liquid chromatography tandem mass spectrometric analytical method. This method utilised a Nexera Series UHPLC system (Shimadzu Corporation, Kyoto, Japan), which was interfaced with a Sciex QTRAP 5500 mass spectrometer (Foster City, CA, USA).
Sample preparation included a liquid–liquid extraction of ARQ 501 and the internal standard dihydrotanshone (IS) from plasma. Briefly, 100 µL of a 700 ng/mL solution of IS in methanol:acetonitrile (3:1) was added to a 2-mL Eppendorf tube and spun to dryness on a CentriVap benchtop vacuum concentrator (Labconco, Kansas City, USA). To the dried tube, 25-µL aliquots of plasma, 25-µL of blank plasma, and 200-µL de-ionised water were added and vortex mixed. To the resultant solution, a 1-mL aliquot of methyl tert-butyl ether:ethyl acetate (1:1) was added. The mixture was shaken for 10 min at 2500 rpm on a VWR shaker. Samples were then centrifuged for 10 min at 4000 rpm at 4.0 °C. […]

[2] = cited from earlier work
[3] = set-up: method as in PMID 22532167; details: animal models; cited from earlier work

Q: Which “Accumulation, Dose 1 vs. Dose 4” value [1] does the source give for `CC1(C)CCC2=C(O1)c1ccccc1C(=O)C2=O` [ARQ 501, β-lapachone] here?
A: does not accumulate to any appreciable extent

Q: What about the “Predominant dose-limiting toxicity (DLT)” value [2] of the same compound?
A: haemolytic anaemia

Q: And the MTD ([2]; earlier ARQ 501 compound, no reference given)?
A: 390 mg/m^2

Q: And the Duration of methemoglobinaemia [3]?
A: 5 min
